From patent US8809631B2, “Screening method for selecting plants that show reduced wound-induced surface discolouration and plant and plant parts thus obtained” (Rijk Zwaan Zaadteelt en Zaadhandel B.V., priority 2007, dated 2014)
“Also recorded” adds a separate entry of the source.

Assays:
lettuce leaf discs = assay: leaf disc pinking assay (discs between wetted filter papers, 5° C., 7 days); format: cell-based; conditions: for effect on pink discolouration (formation of the pink dye): applied during the reaction; for effect on pink discolouration (formation of the pink dye) / concentration at which the pink discolouration was completely inhibited: lettuce leaf discs; for effect on output signal of the screen (brown or pink discolouration of the wound surface): FIG. 1 legend; for concentration at which the pink discolouration was completely inhibited: applied during the assay, 5° C., 7 days
Method: One embodiment of this invention is based on the surprising finding that when discs from leaves, in particular lettuce leaves, are taken and incubated between wetted filter papers at 5° C., after approximately 4 days the formation of a pink dye at the edges of the leaf discs becomes apparent. Suitable filter paper is filter paper type 1450 CV, Ref no. 10 313 281 from Schleier & Schuell, Microscience GmbH, Dassel, Germany. Upon further incubation, the signal intensifies and after approximately one week the maximum intensity has been reached. The formation of the pink dye occurs specifically at wound surfaces.
A phenotypic assay was developed in which leaf discolouration of lettuce induced by wounding can readily be assessed. This approach allows young plant screening for discolouration. Leaf discs of 5 mm diameter were taken from young or mature plants and placed between wetted filter papers in a tray. The system was incubated at 5° C. for 7 days. During the incubation a pink dye developed at the wound site of the leaf disc which became clearly visible as a printed circle on the filter paper (FIG. 2).

lettuce PPO = assay: L-DOPA leaf disc assay (conversion of L-DOPA into melanin); format: cell-based
Method: In addition to assays which address wound-induced discolouration in a broad sense, the method according to this invention also allows to screen in a more specific manner for mutants which have a reduced PPO activity. A phenotypic assay which is indicative for PPO activity was developed by using leaf discs which were incubated in the presence of 1.5 mM L-DOPA. As a black discolouration became apparent it can be concluded that L-DOPA can readily be converted by the polyphenol oxidising system at the wound surface of lettuce leaves into a black pigment called melanine. L-DOPA is converted by PPO into the reactive L-DOPA-quinone which is converted non-enzymatically via dopachrome and indol quinone into the black melanin.

[1] = treatment of formed dye with reducing agent after the wound response was completed; parameters: species or system lettuce; conditions: added after the wound response was completed
Method: As L-cysteine is known to react with o-quinones, which are PPO products, by converting them back into colourless diphenols, the effects of L-cysteine on the pink dye coming from lettuce leaf discs was determined. In parallel the effect of L-cysteine was determined on the melanin formation upon incubation with L-DOPA. Leaf discs were taken and incubated according to the procedures described above. After the wound response was completed, a concentration series of L-cysteine was added to the leaf disc and the change in colour was monitored.

[2] = test system: field-grown lettuce plant; assay: L-cysteine treatment of leaf discs from field-grown lettuce showing pinking; conditions: 1 mM L-cysteine, approximately 30 minutes, room temperature
Method: This is typically observed when plants have been stressed, for example by conditions of severe water logging. The leaf was used to prepare leaf discs which were incubated immediately by 1 mM L-cysteine.

[3] = test system: lettuce outer leaf midrib tissue discs; assay: midrib disc browning assay (wetted filter paper, 16° C.); format: cell-based; conditions: 10 mM L-cysteine, approximately 72 hours
Method: Lettuce plants were grown to maturity and parts of outer leaves were taken by cutting discs from the rib tissue. The discs were incubated on wetted filter paper at 16° C. After approximately 72 hours, the wound surface had turned brown.

Row | SMILES | effect on pink discolouration (formation of the pink dye) (lettuce leaf discs) | effect on output signal of the screen (brown or pink discolouration of the wound surface) (lettuce leaf discs) | concentration at which the pink discolouration was completely inhibited (lettuce leaf discs) [%] | effect on the pink dye already formed by lettuce leaf discs [1] | other results
1 | C[C@H](N)C(=O)O [L-alanine] | did not show any effect | – | – | – | –
2 | N[C@@H](CS)C(=O)O [L-cysteine] | strongly suppressed the formation of the pink dye | completely inhibited | ≥ 0.001 | converted into a colourless compound; also recorded: converting the pink dye back into a colourless compound | effect on black discolouration (melanin formation from L-DOPA) (lettuce PPO; applied simultaneously with L-DOPA (1 mM L-cysteine elsewhere in the source)): completely inhibited; also recorded: can be inhibited; concentration at which L-DOPA discolouration was completely inhibited (lettuce PPO; applied simultaneously with L-DOPA, lettuce leaf discs): ≥ 1 mM; effect on black melanin already formed in the L-DOPA assay [1]: not affected; effect on pink discolouration of field-grown lettuce leaf [2]: the pink discolouration is also eliminated; also recorded: the pink discolouration disappeared; effect on browning response of wound surface [3]: completely be inhibited; also recorded: the browning response was inhibited
3 | CC(C)C[C@H](N)C(=O)O [L-leucine] | did not show any effect | – | – | – | –
4 | O=C1O[C@H]([C@@H](O)CO)C(O)=C1O [ascorbic acid] | – | – | – | convert the pink dye into a colourless compound | –
5 | O=CC=Cc1ccccc1 [cinnamaldehyde] | formation of the pink dye was inhibited | completely inhibited | ≥ 0.01 | – | –
6 | N[C@@H](CCC(=O)N[C@@H](CS)C(=O)NCC(=O)O)C(=O)O [glutathion] | – | – | – | convert the pink dye into a colourless compound | –
